Assay results as given in US20020156023A1, “Lometrexol combination therapy” (Tularik Inc., priority 2000, published 2002).
Where a name gives a salt, the structure may show the parent alone. Values belong to the compound of their own block, whether it stands above or below them.

What was measured:
[1] = cited from earlier work
[2] = cited from earlier work; remark: listed apart in the source
[3] = Storage stability of drug product / reconstituted solution; format: physicochemical; details: reconstituted with 0.9% sodium chloride to approximately 10 mg/mL; vials contain no preservative
Description: Lometrexol sodium for injection is supplied for the study as a lyophilised off-white crystalline solid in single-use vials containing either 50 mg or 200 mg of lometrexol sodium. Vials are stored at room temperature and protected from light. Lometrexol sodium is reconstituted with 0.9% sodium chloride for injection to a concentration of approximately 10 mg/mL. […] Lometrexol sodium is not known to be a vesicant. Lometrexol sodium is administered on Day 1 of every 21-day cycle as a rapid (i.e., 30 to 60 seconds) intravenous bolus immediately prior to the dose of carboplatin. At each dose level shown in Table 1, the appropriate dose of lometrexol sodium is based on the patient's actual calculated body surface area (BSA) at the beginning of each cycle. Note: If the patient's BSA is >2.0 m^2 the dose is calculated using a maximum BSA of 2.0 m^2.
Doxorubicin HCl is available commercially available from several manufacturers in liquid or lyophilised form. The lyophilised powder is stable for 2 years when stored at room temperature and away from direct light. The commercial solution formulations must be stored under refrigeration. […] At each dose level shown in Table 2, the appropriate dose of doxorubicin is based on the patient's actual calculated body surface area (BSA) at the beginning of each 21-day cycle. […]

MDA-MB-231 cells = test: MTT cell proliferation assay, kinase inhibitor plus lometrexol, MDA-MB-231 cells; format: cell-based; details: showing only mild growth inhibition by EGF
Description: A549 and MDA-MB-231 cells were obtained from the ATCC. Cells were propagated in 75 cm^2 flasks in RPMI 1640 medium with 10% fetal bovine serum, 1% penicillin/streptomycin, and 1% glutamine. To initiate the experiment, cells were plated into 96-well plates at 3000 cells/well with the top and bottom rows containing media only as a negative control. The cells were incubated at 37° C. for 15 hours to allow the cells to adhere. After 15 hours, freshly prepared solutions of lometrexol and the appropriate kinase inhibitor (AG1478 or indirubin-3′-monoxime) at the desired dose were added to the media in varying concentrations in a 5×8 matrix of concentrations. Each plate also contained wells that contained medium only and no added compound. The cells were then incubated for 48 hours with the compounds. The relative cell number was determined using the cell proliferation assay reagent MTT. This reagent is converted by mitochondrial dehydrogenases to a colored formazan product that is then quantified by spectrophotometric analysis. […] The relative effect of the compounds was determined by the percentage of the untreated control cells. […]

phosphorylated EGFR = test: EGFR phosphorylation in stimulated A549 cells (immunoprecipitation, western blot, densitometry); format: cell-based; details: 24 hours, then 10% fetal bovine serum + 50 ng/ml EGF for 3 hours, FIG. 4
Description: The A549 lung adenocarcinoma cell line was grown under normal cell culture conditions. The cells were plated in 100 mm^2 dishes in RPMI 1640 culture medium containing 1% penicillin/streptomycin, 1% glutamine and 10% fetal bovine serum. The cells were allowed to grow to >95% confluence. Thereafter, the cells were rinsed twice with phosphate-buffered saline followed by the addition of low-serum medium (RPMI 1640 with 1% penicillin/streptomycin and 0.5% fetal bovine serum).
Lometrexol was added in amounts sufficient to achieve incubation concentrations of 0.004, 0.02, 0.1, 0.5 and 2.5 μg/ml. The cells were incubated in the low-serum medium with lometrexol for 24 hours. After the 24-hour incubation, the concentration of fetal bovine serum was increased to 10%, and 50 ng/ml EGF was added to the cells in the presence of lometrexol. The cells were incubated with these stimulants (fetal bovine serum and EGF) for 3 hours. […] The immunoprecipitated protein was separated by SDS-PAGE, and the amount of phosphorylated EGFR was determined by western blot analysis of the resulting gel using chemiluminescent detection. The blot was probed with an antibody that is specific for the activated, phosphorylated form of EGFR (Chemicon, Temecula, Calif.), and the resulting photographic film was analyzed by densitometry.

A549 cells = test: MTT cell proliferation assay, kinase inhibitor plus lometrexol, A549 cells; format: cell-based; details: for IC50 in A549 cells in the presence of increasing concentrations of lometrexol: 48 hours incubation, MTT, IC50 calculated from the untreated cells, FIG. 1 and FIG. 2
Description: A549 and MDA-MB-231 cells were obtained from the ATCC. Cells were propagated in 75 cm^2 flasks in RPMI 1640 medium with 10% fetal bovine serum, 1% penicillin/streptomycin, and 1% glutamine. To initiate the experiment, cells were plated into 96-well plates at 3000 cells/well with the top and bottom rows containing media only as a negative control. The cells were incubated at 37° C. for 15 hours to allow the cells to adhere. After 15 hours, freshly prepared solutions of lometrexol and the appropriate kinase inhibitor (AG1478 or indirubin-3′-monoxime) at the desired dose were added to the media in varying concentrations in a 5×8 matrix of concentrations. Each plate also contained wells that contained medium only and no added compound. The cells were then incubated for 48 hours with the compounds. The relative cell number was determined using the cell proliferation assay reagent MTT. This reagent is converted by mitochondrial dehydrogenases to a colored formazan product that is then quantified by spectrophotometric analysis. […] The relative effect of the compounds was determined by the percentage of the untreated control cells.
The IC50 value was calculated from the untreated cells. […]. […] The data are presented as % growth relative to cells treated with lometrexol alone. The total incubation time with the compounds was 48 hours.

[4] = tested on: ATP concentration in A549 cells; test: Cellular ATP by luminescent method CellTiter Glo in A549 cells; format: cell-based; details: 24 hours incubation with lometrexol, FIG. 5, average of triplicate measurements
Description: A549 cells were propagated in 75 cm^2 flasks in RPMI 1640 medium with 10% fetal bovine serum, 1% penicillin/streptomycin, and 1% glutamine. To initiate the experiment, cells were plated into 96-well plates at 3000 and 10,000 cells/well with the top and bottom rows containing media only as a negative control. The cells were incubated at 37° C. for 15 hours to allow the cells to adhere. After 15 hours, freshly prepared solutions of lometrexol at the desired dose were added to the media in varying concentrations. Each plate also contained wells that contained medium only and no added compound. The cells were then incubated for 24 hours and the amount of ATP was determined by a luminescent method, CellTiter Glo™ (Promega, Madison, Wis.). Concurrently, the cell number was determined in duplicate rows so that the relative ATP concentration per number of cells could be determined. As depicted in FIG. 5 (average of triplicate measurements), the ATP concentration per million cells was decreased in cells treated with lometrexol at concentrations similar to those where the EGFR phosphorylation was effected and at concentrations similar to those which potentiate kinase inhibitors.

Compound: COc1cccc2c1C(=O)c1c(O)c3c(c(O)c1C2=O)C[C@@](O)(C(=O)CO)C[C@@H]3O[C@H]1C[C@H](N)[C@H](O)[C@H](C)O1 [Doxorubicin HCl]
storage time of reconstituted solution ([1]; reconstituted with sterile water for injection or 0.9% sodium chloride): up to 24 hours
stability of lyophilised powder ([1]; stored at room temperature and away from direct light): 2 years

Compound: Nc1ccn([C@@H]2O[C@H](CO)[C@@H](O)C2(F)F)c(=O)n1 [Gemcitabine HCl]
solubility in ethanol and polar organic solvents ([2]; ethanol and polar organic solvents): insoluble
solubility in methanol ([2]; methanol): slightly soluble
solubility in water ([2]; water): soluble

Compound: Nc1nc2c(c(=O)[nH]1)C[C@@H](CCc1ccc(C(=O)N[C@@H](CCC(=O)O)C(=O)O)cc1)CN2 [Lometrexol sodium]
time to use after reconstitution [3]: ≤ 1 h

Compound: Nc1nc2c(c(=O)[nH]1)CC(CCc1ccc(C(=O)N[C@@H](CCC(=O)O)C(=O)O)cc1)CN2 (stereo partly shown) [lometrexol, 5,10-dideazatetrahydrofolic acid]
lometrexol potentiation of kinase inhibitor growth inhibition (MDA-MB-231 cells): no observed potentiation
relative amount of phosphorylated-EGFR per mg protein in the cell lysate (phosphorylated EGFR; lometrexol 0.004, 0.02 and 0.1 μg/ml): 37-56 % of control
relative phosphorylated-EGFR (phosphorylated EGFR; lometrexol 0.5 and 2.5 μg/ml): ≥ 3 % of the activated-control
lometrexol potentiation of kinase inhibitor growth inhibition (A549 cells; cell line sensitive to EGF stimulation): potentiation is observed
ATP concentration per million cells [4]: decreased

IC50 in A549 cells in the presence of increasing concentrations of lometrexol (A549 cells): decrease in IC50
Compound: COc1cc2ncnc(Nc3cccc(Cl)c3)c2cc1OC [tyrphostin AG1478, 4-(3-chloroanilino)-6,7-dimethoxyquinazoline]

IC50 in A549 cells in the presence of increasing concentrations of lometrexol (A549 cells): decrease in IC50
Compound: indirubin-3′-monoxime
